Laboratory results as given in patent US20060069010A1, “Detoxification depot for Alzheimer's disease” (Senicure LLC, priority 2003, published 2006).
Square brackets hold non-standard residues; d marks the D form. Ends that are not written are not given here.

Tests used:
[1] = target: T1, biotinylated Aβ^1-42 peptide (Homo sapiens, UniProt P05067); test: direct ELISA, plate-immobilised capture peptide probed with biotinylated Aβ peptide; assay type: binding; conditions: 1 μg/well capture peptide, 1 μg/ml biotinylated Aβ, 2 hours; compared to scrambled or irrelevant control peptide (FIG. 1a)
T1 construct: biotinylated Aβ^1-42 peptide (1.7 μg/ml) at 37° C; purchased
T1 sequence (P05067 672-713): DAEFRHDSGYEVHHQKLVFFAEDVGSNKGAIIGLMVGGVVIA
Description: (§1) FIG. 1a graphically illustrates binding of biotinylated Aβ^1-42 and biotinylated Aβ^1-40 peptide by RI peptide. 96-well plate was coated with the capture peptide (1 μg/well of retro-inverso [RI], scrambled [SCR] or an irrelevant control peptide), blocked with gelatin and probed with 1 μg/ml of biotinylated Aβ peptide for 2 hours and streptavidin peroxidase for 1 hour. Experiments were repeated and were calculated as Mean±SE (N=2) and expressed as pmols Aβ^1-42/ml of binding solution. Graded concentrations of biotinylated Aβ^1-42 peptide was used as a calibration standard.
(§2) Testing the binding and stability of biotinylated Aβ peptides in binding solution. The ability of the biotinylated, nt-bAP, which is represented by Aβ peptides (1-42 and 1-40) to bind the binding element, the retro inverso peptide (RI) was investigated on a direct ELISA as described at the end of this section. RI, scrambled or an irrelevant peptide, immobilized on an ELISA plate was allowed to bind biotinylated Aβ peptides, 1-42 or 1-40.

[2] = target: T2, biotinylated Aβ^1-40 peptide (Homo sapiens, UniProt P05067); test: as above; assay type: binding; conditions: 1 μg/well capture peptide, 1 μg/ml biotinylated Aβ, 2 hours; compared to scrambled or irrelevant control peptide (FIG. 1a)
T2 construct: biotinylated Aβ^1-40 peptide (1.7 μg/ml) at 37° C; purchased
T2 sequence (P05067 672-711): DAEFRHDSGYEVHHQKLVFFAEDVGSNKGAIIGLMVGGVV
Description: as §1, §2

[3] = test system: Aβ; conditions: after 1 day of treatment; on the order of 500 ng/g tissue; cited from earlier work
Sequence of Aβ (P05067 672-711 limits assumed): as the sequence (P05067 672-711) above

[4] = test system: nt-bAP; conditions: according to the thioflavin assay (Zhang et al.); cited from earlier work
Sequence of nt-bAP (P05067 672-711 limits assumed): as the sequence (P05067 672-711) above

phe-phe-val-leu-lys-Cys ([dF][dF][dV][dL][dK][dC]-NH2; not fully specified; printed as phe-phe-val-leu-lys-Cys) [RI peptide]
binding of biotinylated Aβ^1-42 by capture peptide [1]: significant and specific binding | binding of biotinylated Aβ^1-40 by capture peptide [2]: significant and specific binding

gelsolin
levels of Aβ in brain [3]: reduced in half

phe-phe-val-leu-lys [ffvlk]
toxicity of aggregates of binding element with nt-bAP [4]: less toxic than nt-bAP itself

GM1
levels of Aβ in brain [3]: reduced in half
